# Values of other authors in article PMC9411704, “Assessment of the Carcinogenic Potential of Pretomanid in Transgenic Tg.rasH2 Mice” (International Journal of Toxicology, 2022).
# Design: method as in PMID 32130813
# Conditions: 200 mg/day, clinical study NCT02333799; cited from earlier work
structure (smiles),measurement,value
"O=[N+]([O-])c1cn2c(n1)OC[C@@H](OCc1ccc(OC(F)(F)F)cc1)C2 [Pretomanid, (6S)-2-nitro-6-{[4-(trifluoromethoxy)benzyl]oxy}-6,7-dihydro-5H-imidazo[2,1-b][1,3]oxazine]",Human AUC0-24,50900 ng·h/mL
